From PMC10331583, “Control of fibrosis with enhanced safety via asymmetric inhibition of prolyl‐tRNA synthetase 1” (EMBO Molecular Medicine, 2023)
“And” between values parts separate entries of the source, which are not always exact repeats. Equal values may be shown once. Read-outs that look alike come from different tables or passages of the source.

What was measured:
[1] = system: WI‐26 VA4 cells; experiment: Puromycin incorporation assay; assay type: cell-based, human
Procedure: After being rinsed with cold PBS twice, the cells were collected and resuspended in 200 μl of the carbonate bicarbonate buffer (Sigma Aldrich, C3041‐50CAP) with protease inhibitor. The cell lysates were obtained by sonication and centrifugation at 20,000 g for 15 min at 4°C. After protein quantification using a Pierce™ BCA Protein Assay Kit (Thermo Fisher Scientific, 23225), 400 ng of the proteins was coated to ELISA plates for 18 h at 4°C. […] The plates were rinsed with the washing buffer for three times after each antibody incubation step. […] The amount of puromycin incorporated in proteins was determined by measuring the absorbance at 450 nm (reference wavelength at 620 nm). Experimental values marked in red with strikethrough text in the Figure Source Data file were excluded from the analysis. These values were determined by considering the values of biological and technical replicates under the same condition, as well as the values at the former and later chemical concentrations.

[2] = CellTiter‐Glo assay (cytotoxicity); conditions: human, WI-26 VA4 cells
[3] = system: WI‐26 VA4 cells; experiment: CellTiter‐Glo assay (cytotoxicity); conditions: for activity at 0.0001 µM / activity at 0.0003 µM / activity at 0.001 µM / activity at 0.003 µM / activity at 0.01 µM / activity at 0.03 µM / activity at 0.1 µM / activity at 0.3 µM / activity at 1 µM / activity at 3 µM / activity at 10 µM / activity at 30 µM / activity at 100 µM: Homo sapiens
[4] = system: WI‐26 VA4 cells; experiment: Collagen ELISA (secreted pro‐collagen I)
[5] = log(inhibitor) vs. response, variable slope (four parameters)
[6] = log(inhibitor) vs. response, variable slope (four parameters), concentration in nM

Cc1c(Br)cnc2c1ncn2CC(=O)C[C@H]1NCCC[C@@H]1O [DWN11761]
activity at 30 µM ([1]; Homo sapiens, WI26VA4, 30000 nM, read-out: Puromycin, % of control, average): -0.13% | activity at 100 µM ([1]; Homo sapiens, WI26VA4, 100000 nM, read-out: Puromycin, % of control, average): 0.29% | IC50 ([1]; Homo sapiens, WI26VA4, log(inhibitor) vs. response, variable slope (four parameters), read-out: Puromycin, IC50 (best-fit value)): 0.581 µM | Puromycin, HillSlope (best-fit value) [1, 5]: -3.124 | Puromycin, LogIC50 (best-fit value) [1, 6]: 2.764 | CC50 at 72 h [2]: 0.294 µM | activity at 0.0001 µM ([3]; WI26VA4, read-out: CellTiter-Glo % of control, 0.1 nM, Experiment #1, replicates): 101% | activity at 0.0001 µM ([3]; WI26VA4, read-out: CellTiter-Glo % of control, 0.1 nM, Experiment #2, replicates): 95.4% | activity at 0.0003 µM ([3]; WI26VA4, read-out: CellTiter-Glo % of control, 0.3 nM, Experiment #1, replicates): 110% | activity at 0.0003 µM ([3]; WI26VA4, read-out: CellTiter-Glo % of control, 0.3 nM, Experiment #2, replicates): 103% | activity at 0.001 µM ([3]; WI26VA4, read-out: CellTiter-Glo % of control, 1 nM, Experiment #1, replicates): 106% | activity at 0.001 µM ([3]; WI26VA4, read-out: CellTiter-Glo % of control, 1 nM, Experiment #2, replicates): 93.8% | activity at 0.003 µM ([3]; WI26VA4, read-out: CellTiter-Glo % of control, 3 nM, Experiment #1, replicates): 100% | activity at 0.01 µM ([3]; WI26VA4, read-out: CellTiter-Glo % of control, 10 nM, Experiment #1, replicates): 104% | activity at 0.03 µM ([3]; WI26VA4, read-out: CellTiter-Glo % of control, 30 nM, Experiment #1, replicates): 94.7% | activity at 0.1 µM ([3]; WI26VA4, read-out: CellTiter-Glo % of control, 100 nM, Experiment #1, replicates): 72.9% | activity at 0.3 µM ([3]; WI26VA4, read-out: CellTiter-Glo % of control, 300 nM, Experiment #1, replicates): 56.9% | activity at 1 µM ([3]; WI26VA4, read-out: CellTiter-Glo % of control, 1000 nM, Experiment #1, replicates): 24.9% | activity at 1 µM ([3]; WI26VA4, read-out: CellTiter-Glo % of control, 1000 nM, Experiment #2, replicates): 12.4% | activity at 3 µM ([3]; WI26VA4, read-out: CellTiter-Glo % of control, 3000 nM, Experiment #1, replicates): 39.6% | activity at 3 µM ([3]; WI26VA4, read-out: CellTiter-Glo % of control, 3000 nM, Experiment #2, replicates): 30.3% | activity at 10 µM ([3]; WI26VA4, read-out: CellTiter-Glo % of control, 10000 nM, Experiment #1, replicates): 14.4% | activity at 10 µM ([3]; WI26VA4, read-out: CellTiter-Glo % of control, 10000 nM, Experiment #2, replicates): 8.9% | activity at 30 µM ([3]; WI26VA4, read-out: CellTiter-Glo % of control, 30000 nM, Experiment #1, replicates): 6.42% | activity at 30 µM ([3]; WI26VA4, read-out: CellTiter-Glo % of control, 30000 nM, Experiment #2, replicates): 4.58% | activity at 100 µM ([3]; WI26VA4, read-out: CellTiter-Glo % of control, 100000 nM, Experiment #1, replicates): 2.45% | activity at 100 µM ([3]; WI26VA4, read-out: CellTiter-Glo % of control, 100000 nM, Experiment #2, replicates): 1.52% | activity at 0.0001 µM ([3]; WI26VA4, read-out: CellTiter-Glo % of control, average, 0.1 nM, average): 102% | activity at 0.0003 µM ([3]; WI26VA4, read-out: CellTiter-Glo % of control, average, 0.3 nM, average): 105% | activity at 0.001 µM ([3]; WI26VA4, read-out: CellTiter-Glo % of control, average, 1 nM, average): 96.9% | activity at 0.003 µM ([3]; WI26VA4, read-out: CellTiter-Glo % of control, average, 3 nM, average): 82.5% | activity at 0.01 µM ([3]; WI26VA4, read-out: CellTiter-Glo % of control, average, 10 nM, average): 91.2% | activity at 0.03 µM ([3]; WI26VA4, read-out: CellTiter-Glo % of control, average, 30 nM, average): 86.4% | activity at 0.1 µM ([3]; WI26VA4, read-out: CellTiter-Glo % of control, average, 100 nM, average): 66.3% | activity at 0.3 µM ([3]; WI26VA4, read-out: CellTiter-Glo % of control, average, 300 nM, average): 51.8% | activity at 1 µM ([3]; WI26VA4, read-out: CellTiter-Glo % of control, average, 1000 nM, average): 20.8% | activity at 3 µM ([3]; WI26VA4, read-out: CellTiter-Glo % of control, average, 3000 nM, average): 32.6% | activity at 10 µM ([3]; WI26VA4, read-out: CellTiter-Glo % of control, average, 10000 nM, average): 11.2% | activity at 30 µM ([3]; WI26VA4, read-out: CellTiter-Glo % of control, average, 30000 nM, average): 5.72% | activity at 100 µM ([3]; WI26VA4, read-out: CellTiter-Glo % of control, average, 100000 nM, average): 1.91% | CellTiter-Glo LogIC50 (best-fit value) [3, 6]: 2.468 | Collagen, % of control (single replicates per experiment) ([4]; 1 nM, 0.001 µM): 99.09 % of control and 89.14 % of control and 102.78 % of control and 94.15 % of control and 107.84 % of control | Collagen, % of control (single replicates per experiment) ([4]; 3 nM, 0.003 µM): 120.43 % of control and 98.90 % of control and 84.42 % of control and 95.43 % of control and 97.10 % of control and 104.96 % of control | Collagen, % of control (single replicates per experiment) ([4]; 30 nM, 0.03 µM): 79.96 % of control and 82.37 % of control | CC50/collagen IC50 ([4]; Fig 5E): 5.47 | IC50 ([4]; Homo sapiens, WI26VA4, read-out: Collagen IC50 (best-fit value), log(inhibitor) vs. response, variable slope (four parameters) (converted)): 0.0537 µM | activity at 0.001 µM ([4]; Homo sapiens, WI26VA4, read-out: Collagen, % of control (single replicates per experiment), 1 nM): 109% | activity at 0.1 µM ([4]; Homo sapiens, WI26VA4, read-out: Collagen, % of control (single replicates per experiment), 100 nM): 20.2% | activity at 0.3 µM ([4]; Homo sapiens, WI26VA4, read-out: Collagen, % of control (single replicates per experiment), 300 nM): 3.63% | activity at 0.001 µM ([4]; Homo sapiens, WI26VA4, read-out: Collagen, % of control, average, 1 nM, average): 100% | activity at 0.003 µM ([4]; Homo sapiens, WI26VA4, read-out: Collagen, % of control, average, 3 nM, average): 100% | activity at 0.01 µM ([4]; Homo sapiens, WI26VA4, read-out: Collagen, % of control, average, 10 nM, average): 101% | activity at 0.03 µM ([4]; Homo sapiens, WI26VA4, read-out: Collagen, % of control, average, 30 nM, average): 80.4% | activity at 0.1 µM ([4]; Homo sapiens, WI26VA4, read-out: Collagen, % of control, average, 100 nM, average): 20.6% | activity at 0.3 µM ([4]; Homo sapiens, WI26VA4, read-out: Collagen, % of control, average, 300 nM, average): 3.18% | activity at 1 µM ([4]; Homo sapiens, WI26VA4, read-out: Collagen, % of control, average, 1000 nM, average): 1.53% | activity at 3 µM ([4]; Homo sapiens, WI26VA4, read-out: Collagen, % of control, average, 3000 nM, average): 1.46% | Collagen HillSlope (best-fit value) [4, 5]: -2.337 | Collagen LogIC50 (best-fit value) [4, 6]: 1.73 | Relative (CC50)/(collagen IC50) ([4]; relative to HF, Fig 5E): 1.63
